This note sets out measurements from PubChem BioAssay (NCI).

Several values for one entry are separate records, joined by “and”; a condition that tells them apart may be missing. Identical values can stand only once.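 Dose response: 5 concentrations. Exposure: 48 h. Format: 96-well plates. Endpoint: linear interpolation; highest concentration if not reached. GI50: concentration for 50% inhibition of growth. TGI denotes the concentration required for complete inhibition of growth.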

Test systems include CCRF-CEM leukemia; T-47D breast; BT-549 breast; SF-539 CNS; MDA-MB-435; SK-MEL-28 melanoma; PC-3 prostate; HT29 colon; HCT-15 colon; MCF7 breast.
Holding throughout (experiment): NCI-60 cell line screen, 48 h

As for `COc1ccc2c(O)c(/C=C3\N=Nc4ncccc43)oc2c1C[C@H]1CCNC[C@H]1F`, the GI50 is 0.227 µM in the experiment with CCRF-CEM leukemia; 3.46 µM in the experiment with T-47D breast; 0.211 µM in the experiment on BT-549 breast; 0.252 µM with SF-539 CNS; 0.467 µM with MDA-MB-435; 2.22 µM in the experiment on SK-MEL-28 melanoma. Moreover, the GI50 in the experiment with PC-3 prostate is 0.267 µM; with HT29 colon, 0.411 µM; in the experiment on HCT-15 colon, 0.507 µM; in the experiment with MCF7 breast it was 0.207 µM. The TGI in the experiment with CCRF-CEM leukemia came to 0.876 µM; in the experiment with T-47D breast, 21.1 µM; in the experiment with BT-549 breast, 2.3 µM; in the experiment on SF-539 CNS, 0.952 µM; in the experiment on MDA-MB-435 it was 10.6 µM; in the experiment with SK-MEL-28 melanoma it was 12 µM. The TGI was 11.1 µM in the experiment with PC-3 prostate, 6.93 µM with HT29 colon, 12.2 µM in the experiment on HCT-15 colon and 9.18 µM in the experiment with MCF7 breast.
As to `O=C1c2ccccc2C(=O)c2c(NC(=O)C(Cl)CCl)cccc21` (centres undefined), the TGI with CCRF-CEM leukemia was 2.38 µM; with T-47D breast, greater than 27.5 µM; in the experiment on BT-549 breast it was 31.2 µM; with SF-539 CNS it was 11.5 µM; in the experiment on MDA-MB-435 it was 23 µM; in the experiment on SK-MEL-28 melanoma, 35.5 µM. Moreover, the TGI in the experiment with PC-3 prostate worked out at 24.3 µM; with HT29 colon it was 10.5 µM; in the experiment with HCT-15 colon, 23.4 µM; in the experiment on MCF7 breast it was 2.47 µM.
For the molecule `CNS(=O)(=O)c1ccccc1C(=N)c1ccccc1`, the TGI in the experiment with CCRF-CEM leukemia, with T-47D breast, in the experiment with BT-549 breast, with SF-539 CNS, in the experiment with MDA-MB-435 and with SK-MEL-28 melanoma was greater than 100 µM throughout. In addition, the TGI in the experiment on PC-3 prostate, in the experiment with HT29 colon, with HCT-15 colon and in the experiment on MCF7 breast was greater than 100 µM in each case.
With `c1ccc(CCCNc2nnnc3ccccc23)cc1`, the TGI with CCRF-CEM leukemia was greater than 100 µM; in the experiment on T-47D breast, 83 µM; in the experiment with BT-549 breast it was greater than 100 µM; in the experiment on SF-539 CNS it was greater than 100 µM; in the experiment on MDA-MB-435, greater than 100 µM; in the experiment on SK-MEL-28 melanoma it was greater than 100 µM. In addition, the TGI with PC-3 prostate, with HT29 colon, with HCT-15 colon and with MCF7 breast was greater than 100 µM in each case.
As to `COc1ccc(-c2ccc3ncc4c(c3c2)n(-c2ccc(N3CCNCC3)c(C(F)(F)F)c2)c(=O)n4C)cn1`, the GI50 in the experiment with CCRF-CEM leukemia was < 0.01 µM and 0.00664 µM; in the experiment with T-47D breast, < 0.01 µM and 0.00189 µM; in the experiment on BT-549 breast it was < 0.01 µM and 0.00552 µM; in the experiment on SF-539 CNS, < 0.011 µM and 0.0132 µM; in the experiment on MDA-MB-435, < 0.01 µM and 0.00272 µM; with SK-MEL-28 melanoma, < 0.01 µM and 0.00679 µM. The GI50 is < 0.01 µM and 0.00281 µM with PC-3 prostate; < 0.01 µM and 0.00658 µM in the experiment on HT29 colon; < 0.0104 µM and 0.0127 µM in the experiment on HCT-15 colon; 0.0035 µM in the experiment on MCF7 breast. The TGI is 0.282 µM and 0.144 µM with CCRF-CEM leukemia; < 0.01 µM and 0.021 µM in the experiment with T-47D breast; 0.0556 µM and 0.0647 µM in the experiment with BT-549 breast; 0.0606 µM and 0.0587 µM in the experiment on SF-539 CNS; 0.0732 µM and 0.106 µM with MDA-MB-435; 0.101 µM and 0.0648 µM in the experiment with SK-MEL-28 melanoma. Also, the TGI in the experiment on PC-3 prostate was 0.799 µM and 1.12 µM; with HT29 colon, 0.122 µM and 0.393 µM; in the experiment on HCT-15 colon it was 0.137 µM and 0.186 µM; with MCF7 breast it was 0.0793 µM.
For the molecule `CCCCCCCCCCCCOC1C(CNCC2OC3OC(C)(C)OC3C2NC(=O)Nc2ccc(C(F)(F)F)cc2)OC2OC(C)(C)OC21` (centres undefined), the GI50 was 2.45 µM in the experiment with CCRF-CEM leukemia; 7.31 µM in the experiment on T-47D breast; 7.44 µM in the experiment on BT-549 breast; 7.09 µM with SF-539 CNS; 5.27 µM with MDA-MB-435; 7.28 µM with SK-MEL-28 melanoma. Besides, the GI50 in the experiment on PC-3 prostate is 6.68 µM; in the experiment on HT29 colon it was 3.14 µM; in the experiment with HCT-15 colon it was 7.47 µM; with MCF7 breast, 3.53 µM. Also, the TGI was found to be 12.5 µM with CCRF-CEM leukemia; 16.9 µM in the experiment on T-47D breast; 14.4 µM with BT-549 breast; 13.9 µM in the experiment with SF-539 CNS; 13.4 µM with MDA-MB-435; 14.5 µM in the experiment on SK-MEL-28 melanoma. Further, the TGI with PC-3 prostate is 13.2 µM; in the experiment with HT29 colon it was 7.07 µM; in the experiment on HCT-15 colon, 15 µM; in the experiment with MCF7 breast, 7.94 µM.
For `C[C@@H]1[C@H]2[C@H](C=C3[C@@H]4CC[C@H]5Cc6nc7c(nc6C[C@]5(C)[C@H]4C[C@@H](O)[C@@]32C)C[C@@H]2CC[C@H]3C4=C[C@@H]5O[C@@]6(CC[C@](C)(CO)O6)[C@@H](C)[C@@]5(O)[C@@]4(C)[C@H](O)C[C@@H]3[C@@]2(C)C7)O[C@]12CCC(C)(C)O2`, the GI50 with CCRF-CEM leukemia is 0.317 µM; in the experiment on T-47D breast, 0.405 µM; in the experiment with BT-549 breast it was 0.338 µM; in the experiment with SF-539 CNS, 0.114 µM; in the experiment on MDA-MB-435, 2.8 µM; in the experiment with SK-MEL-28 melanoma, 0.518 µM. For the same molecule, the GI50 is 0.391 µM in the experiment with PC-3 prostate, 0.34 µM with HT29 colon, 0.43 µM in the experiment with HCT-15 colon and 0.49 µM in the experiment on MCF7 breast. Also, the TGI was greater than 41.8 µM in the experiment on T-47D breast; 15 µM in the experiment with BT-549 breast; 4.08 µM in the experiment on SF-539 CNS; 24.3 µM in the experiment on MDA-MB-435; 21.3 µM in the experiment with SK-MEL-28 melanoma; 6.76 µM in the experiment with PC-3 prostate. Further, the TGI in the experiment with HT29 colon turned out to be 2.47 µM; in the experiment on HCT-15 colon it was 8.14 µM; in the experiment with MCF7 breast, 15.3 µM.
Turning to `O=C(CCc1ccco1)NC1CCN(CC2(c3ccc(Cl)cc3)CCC2)CC1`, the GI50 in the experiment on CCRF-CEM leukemia was 13.7 µM; in the experiment with T-47D breast it was 16.2 µM; with BT-549 breast, 15.2 µM; in the experiment with SF-539 CNS, 13.4 µM; in the experiment with MDA-MB-435, 11.8 µM; in the experiment with SK-MEL-28 melanoma, 15.3 µM. Besides, the GI50 in the experiment on PC-3 prostate was 14.1 µM; in the experiment on HT29 colon, 3.44 µM; in the experiment on HCT-15 colon it was 6.27 µM; with MCF7 breast it was 11.5 µM. The TGI stood at 49.9 µM in the experiment with CCRF-CEM leukemia; 46.6 µM in the experiment on T-47D breast; 29.6 µM with BT-549 breast; 26.6 µM in the experiment with SF-539 CNS; 24.1 µM in the experiment on MDA-MB-435; 29.1 µM in the experiment with SK-MEL-28 melanoma. Also, the TGI was found to be 31.1 µM in the experiment on PC-3 prostate, 11.8 µM in the experiment on HT29 colon, 20.3 µM in the experiment with HCT-15 colon and 26.7 µM in the experiment on MCF7 breast.
